Test [1] relates to serum cholesterol, ovariectomized rats. Description: Serum cholesterol in ovariectomized rats (4 days daily oral dosing). The conditions noted are these: Rattus norvegicus, 96 h, read-out: Serum Cholesterol (% decrease vs. OVX); for inhibition in vivo at 0.1 mg/kg: 0.1 mg/kg PO; for inhibition in vivo at 1 mg/kg: 1.0 mg/kg PO; for inhibition in vivo at 10 mg/kg: 10.0 mg/kg PO. The test is classed as in vivo, rat (female Sprague Dawley). Here is the method: (§1) In the examples illustrating the methods, a postmenopausal model was used in which effects of different treatments upon circulating lipids were determined.
(§2) Seventy-five day old female Sprague Dawley rats (weight range of 200 to 225 g) were obtained from Charles River Laboratories (Portage, Mich.). The animals were either bilaterally ovariectomized (OVX) or exposed to a Sham surgical procedure at Charles River Laboratories, and then shipped after one week. Upon arrival, they were housed in metal hanging cages in groups of 3 or 4 per cage and had ad libitum access to food (calcium content approximately 0.5%) and water for one week. Room temperature was maintained at 22.2°±1.70° C. with a minimum relative humidity of 40%. The photoperiod in the room was 12 hours light and 12 hours dark.
(§3) After a one week acclimation period (therefore, two weeks post-OVX) daily dosing with test compound was initiated. […] Animals were dosed daily for 4 days. Following the dosing regimen, animals were weighed and anesthetized with a ketamine: Xylazine (2:1, V:V) mixture and a blood sample was collected by cardiac puncture. The animals were then sacrificed by asphyxiation with CO2, the uterus was removed through a midline incision, and a wet uterine weight was determined.
Blood samples were allowed to clot at room temperature for 2 hours, and serum was obtained following centrifugation for 10 minutes at 3000 rpm. Serum cholesterol was determined using a Boehringer Mannheim Diagnostics high performance cholesterol assay. Briefly the cholesterol was oxidized to cholest-4-en-3-one and hydrogen peroxide. The hydrogen peroxide was then reacted with phenol and 4-aminophenazone in the presence of peroxidase to produce a p-quinone imine dye, which was read spectrophotemetrically at 500 nm. Cholesterol concentration was then calculated against a standard curve. The entire assay was automated using a Biomek Automated Workstation. […]
(§4) The data presented in Table 1 below reflects the response of 5 to 6 rats per treatment.

For test [2], the system named is uterus, ovariectomized rats. The experiment in a line: Uterine weight in ovariectomized rats (4 days daily oral dosing). It is filed as in vivo, rat (female Sprague Dawley). The conditions noted are these: Rattus norvegicus, 96 h, read-out: Uterine weight (% increase vs. OVX); for change in vivo at 0.1 mg/kg: 0.1 mg/kg PO; for change in vivo at 1 mg/kg: 1.0 mg/kg PO; for change in vivo at 10 mg/kg: 10.0 mg/kg PO. Here is the method:
as §1, §2, §3
This uterine response to estrogen is well recognized in the art.
as §4

The subject of test [3] is Uterine Eosinophil Peroxidase (EPO). The experiment in a line: Uterine Eosinophil Peroxidase (EPO) Assay in ovariectomized rats. More on the design: Uterine EPO (Vmax): unit not given here. The test is classed as in vivo, rat (female Sprague Dawley).
Description: as §2, §3
Uteri were kept at 4° C. until time of enzymatic analysis. The uteri were then homogenized in 50 volumes of 50 mM Tris buffer (pH-8.0) containing 0.005% Triton X-100. Upon addition of 0.01% hydrogen peroxide and 10 mM O-phenylenediamine (final concentrations) in Tris buffer, increase in absorbance was monitored for one minute at 450 nm. The presence of eosonophils in the uterus is an indication of estrogenic activity of a compound. The maximal velocity of a 15 second interval was determined over the initial, linear portion of the reaction curve.
As is expressed in the data below, estrogenicity also was assessed by evaluating the adverse response of eosinophil infiltration into the uterus.
as §4

In test [4] the test system is MCF-7 breast adenocarcinoma cells. The experiment in a line: MCF-7 Proliferation Assay (tritiated thymidine). The test is classed as cell-based. The conditions noted are these: Homo sapiens, MCF7, 48 hours, read-out: IC50. As to the method: MCF-7 breast adenocarcinoma cells (ATCC HTB 22) were maintained in MEM (minimal essential medium, phenol red-free, Sigma, St. Louis, Mo.) supplimented with 10% fetal bovine serum (FBS) (V/V), L-glutamine (2 mM), sodium pyruvate (1 mM), HEPES {(N-[2-hydroxyethyl]piperazine-N'-[2-ethanesulfonic acid]10 mM}, non-essential amino acids and bovine insulin (1 ug/mL) (maintenance medium). Ten days prior to assay, MCF-7 cells were switched to maintenance medium supplemented with 10% dextran coated charcoal stripped fetal bovine serum (DCC-FBS) assay medium) in place of 10% FBS to deplete internal stores of steroids. MCF-7 cells were removed from maintenance flasks using cell dissociation medium (Ca++/Mg++ free HBSS (phenol red-free) supplemented with 10 mM HEPES and 2 mM EDTA). Cells were washed twice with assay medium and adjusted to 80,000 cells/mL. Approximately […] (8,000 cells) were added to flat-bottom microculture wells (Costar 3596) and incubated at 37° C. in a 5% CO2 humidified incubator for 48 hours to allow for cell adherence and equilibration after transfer. Serial dilutions of drugs or DMSO as a diluent control were prepared in assay medium and […] to triplicate microcultures followed by […] assay medium for a final volume of […]. After an additional 48 hours at 37° C. in a 5% CO2 humidified incubator, microcultures were pulsed with tritiated thymidine (1 uCi/well) for 4 hours. Cultures were terminated by freezing at -70° C. for 24 hours followed by thawing and harvesting of microcultures using a Skatron Semiautomatic Cell Harvester. Samples were counted by liquid scintillation using a Wallac BetaPlace b counter. Results in Table 4 below show the IC50 for certain compounds of the instant invention. […]

The IC50 is the midpoint of a concentration-inhibition curve.

Regarding `O=C(c1ccc(OCCN2CCCCC2)cc1)c1c(-c2ccc(O)c(Cl)c2)sc2cc(O)ccc12` [Example 5, [2-(3-Chloro-4-hydroxyphenyl)-6-hydroxybenzo[b]thien-3-yl][4-[2-(1-piperidinyl)ethoxy]phenyl]methanone], in test [1], the inhibition in vivo at 0.1 mg/kg amounted to 18.6%, the inhibition in vivo at 1 mg/kg was determined as 52.6% and the inhibition in vivo at 10 mg/kg was 71.5%. In test [2], the change in vivo at 0.1 mg/kg was -22.6%, the change in vivo at 1 mg/kg was 20.7% and the change in vivo at 10 mg/kg was determined as 30.2%. Besides, in test [3] (0.1 mg/kg PO), the “Uterine EPO (Vmax)” value was 1.2. For the same molecule, in test [3] (1.0 mg/kg PO), the “Uterine EPO (Vmax)” value is 2.4. In addition, the “Uterine EPO (Vmax)” value in test [3] (10.0 mg/kg PO) is given as 1.3. The 50% inhibitory concentration (IC50) in test [4] was 2.3 nM.
On to `Cc1cc(-c2sc3cc(O)ccc3c2C(=O)c2ccc(OCCN3CCCCC3)cc2)ccc1O` [Example 7, [2-(3-Methyl-4-hydroxyphenyl)-6-hydroxybenzo[b]thien-3-yl][4-[2-(1-piperidinyl)ethoxy]phenyl]methanone], for which, in test [1], the inhibition in vivo at 0.1 mg/kg is 53.7%, the inhibition in vivo at 1 mg/kg was 77.6% and the inhibition in vivo at 10 mg/kg was 49.7%. Further, in test [2], the change in vivo at 0.1 mg/kg was found to be 7.6%, the change in vivo at 1 mg/kg came out at 15.6% and the change in vivo at 10 mg/kg amounted to 24.6%. In addition, the “Uterine EPO (Vmax)” value in test [3] (0.1 mg/kg PO) was found to be 4.9. The “Uterine EPO (Vmax)” value in test [3] (1.0 mg/kg PO) stood at 2.5. In addition, the “Uterine EPO (Vmax)” value in test [3] (10.0 mg/kg PO) is 2.8. Also, the concentration for half-maximal inhibition (IC50) in test [4] was determined as 1 nM.
Take `COc1ccc2c(C(=O)c3ccc(OCCN4CCCCC4)cc3)c(-c3ccc(OC)c(OC)c3)sc2c1` [Example 8, [2-(3,4-Dimethoxyphenyl)-6-methoxybenzo[b]thien-3-yl][4-[2-(1-piperidinyl)ethoxy]phenyl]methanone]: in test [1], the inhibition in vivo at 0.1 mg/kg came out at 24.8%, the inhibition in vivo at 1 mg/kg was 57.8% and the inhibition in vivo at 10 mg/kg is 60.8%. Further, in test [2], the change in vivo at 0.1 mg/kg is -8.3%, the change in vivo at 1 mg/kg was determined as 23.4% and the change in vivo at 10 mg/kg worked out at 24.1%. For the same molecule, the “Uterine EPO (Vmax)” value in test [3] (0.1 mg/kg PO) was 1.3. In test [3] (1.0 mg/kg PO), the “Uterine EPO (Vmax)” value was 4.4. Moreover, the “Uterine EPO (Vmax)” value in test [3] (10.0 mg/kg PO) came to 11.2.
Consider `O=C(c1ccc(OCCN2CCCCC2)cc1)c1c(-c2ccccc2O)sc2cc(O)ccc12` [Example 10, [2-(2-Hydroxyphenyl)-6-hydroxybenzo[b]thien-3-yl][4-[2-(1-piperidinyl)ethoxy]phenyl]methanone], for which, in test [1], the inhibition in vivo at 0.1 mg/kg was determined as 7.8%, the inhibition in vivo at 1 mg/kg is 19.5% and the inhibition in vivo at 10 mg/kg came out at 33.2%. For the same molecule, in test [2], the change in vivo at 0.1 mg/kg was -18.3%, the change in vivo at 1 mg/kg is -21% and the change in vivo at 10 mg/kg turned out to be 10.6%. Besides, the “Uterine EPO (Vmax)” value in test [3] (0.1 mg/kg PO) stood at 2.8. For the same molecule, the “Uterine EPO (Vmax)” value in test [3] (1.0 mg/kg PO) is 1.7. In test [3] (10.0 mg/kg PO), the “Uterine EPO (Vmax)” value amounted to 3.7. Besides, the IC50 in test [4] was 10 nM.
For `O=C(Oc1cccc(-c2sc3cc(OC(=O)c4ccccc4)ccc3c2C(=O)c2ccc(OCCN3CCCCC3)cc2)c1)c1ccccc1` [Example 13, [2-(3-Benzoyloxyphenyl)-6-benzoyloxybenzo[b]thien-3-yl][4-[2-(1-piperidinyl)ethoxy]phenyl]methanone], in test [1], the inhibition in vivo at 0.1 mg/kg turned out to be 25.3%, the inhibition in vivo at 1 mg/kg came to 45.7% and the inhibition in vivo at 10 mg/kg is 61.4%. Besides, in test [2], the change in vivo at 0.1 mg/kg was -18.6%, the change in vivo at 1 mg/kg was 34.7% and the change in vivo at 10 mg/kg was determined as 27.6%. Moreover, in test [3] (0.1 mg/kg PO), the “Uterine EPO (Vmax)” value was 3.0. In addition, the “Uterine EPO (Vmax)” value in test [3] (1.0 mg/kg PO) was found to be 6.0. For the same molecule, in test [3] (10.0 mg/kg PO), the “Uterine EPO (Vmax)” value is recorded as 8.4.
In the case of `Cc1cc(O)ccc1-c1sc2cc(O)ccc2c1C(=O)c1ccc(OCCN2CCCCC2)cc1` [Example 16, [2-(2-Methyl-4-hydroxyphenyl)-6-hydroxybenzo[b]thien-3-yl][4-[2-(1-piperidinyl)ethoxy]phenyl]methanone], in test [1], the inhibition in vivo at 0.1 mg/kg worked out at 39.2%, the inhibition in vivo at 1 mg/kg was 62.6% and the inhibition in vivo at 10 mg/kg came out at 68.5%. In test [2], the change in vivo at 0.1 mg/kg came out at 54.5%, the change in vivo at 1 mg/kg turned out to be 53.7% and the change in vivo at 10 mg/kg is 62.7%. The “Uterine EPO (Vmax)” value in test [3] (0.1 mg/kg PO) is 8.1. In addition, the “Uterine EPO (Vmax)” value in test [3] (1.0 mg/kg PO) is reported as 8.4. Also, the “Uterine EPO (Vmax)” value in test [3] (10.0 mg/kg PO) was determined as 8.1. Also, the IC50 in test [4] was 2 nM.
In the case of `COc1ccc(-c2sc3cc(OC)ccc3c2C(=O)c2ccc(OCCN3CCCCC3)cc2)c(OC)c1` [Example 17, [2-(2,4-Dimethoxyphenyl)-6-methoxybenzo[b]thien-3-yl] [4-[2-(1-piperidinyl)ethoxy]phenyl]methanone], in test [1], the inhibition in vivo at 0.1 mg/kg came to 51.4%, the inhibition in vivo at 1 mg/kg came to 68.5% and the inhibition in vivo at 10 mg/kg amounted to 67.2%. Further, in test [2], the change in vivo at 0.1 mg/kg turned out to be 40.1%, the change in vivo at 1 mg/kg was 66.1% and the change in vivo at 10 mg/kg came out at 53.7%. Further, in test [3] (0.1 mg/kg PO), the “Uterine EPO (Vmax)” value amounted to 20.4. In addition, the “Uterine EPO (Vmax)” value in test [3] (1.0 mg/kg PO) is 102.0. Moreover, the “Uterine EPO (Vmax)” value in test [3] (10.0 mg/kg PO) was 20.1. For the same molecule, in test [4], the concentration for half-maximal inhibition (IC50) worked out at 300 nM.
For `COc1cc(O)ccc1-c1sc2cc(O)ccc2c1C(=O)c1ccc(OCCN2CCCCC2)cc1` [Example 18, [2-(4-Hydroxy-2-methoxyphenyl)-6-hydroxybenzo[b]thien-3-yl] [4-[2-(1-piperidinyl)ethoxy]phenyl]methanone], in test [1], the inhibition in vivo at 0.1 mg/kg worked out at 58.8%, the inhibition in vivo at 1 mg/kg stood at 79% and the inhibition in vivo at 10 mg/kg came to 71.6%. Moreover, in test [2], the change in vivo at 0.1 mg/kg was 64.1%, the change in vivo at 1 mg/kg is 69.2% and the change in vivo at 10 mg/kg was 73.3%. For the same molecule, in test [3] (0.1 mg/kg PO), the “Uterine EPO (Vmax)” value was found to be 34.2. Also, the “Uterine EPO (Vmax)” value in test [3] (1.0 mg/kg PO) is reported as 81.9. The “Uterine EPO (Vmax)” value in test [3] (10.0 mg/kg PO) turned out to be 135.9. Moreover, the IC50 in test [4] turned out to be 2 nM.
As to `C[C@]12CC[C@@H]3c4ccc(O)cc4CC[C@H]3[C@@H]1CC[C@@H]2O` [estradiol, reference compound], the “eosinophil infiltration into the uterus (in words)” value in test [3] (stromal layer of ovariectomized rats) was “substantial, expected increase in eosinophil infiltration”.

The values are drawn from patent US5998442A, “Benzo [B] thiophene compounds, and compositions for treating bone loss, and hyperlipidemia” (Eli Lilly and Company, priority 1997, dated 1999).
